Laboratory results: patent US12202835B2, “Substituted aromatic ring-linked dioxinoquinazolines and dioxinoquinolines as kinase inhibitors” (BEIJING SCITECH-MQ PHARMACEUTICALS LIMITED, priority 2018, dated 2025)
pIC50: −log10 of the molar value.

Legend:
Format in all cases: biochemical
TRKA kinase = TRKA kinase (Homo sapiens (Human), UniProt P04629); assay: Assay of small molecular compounds for inhibiting the activity of TRKA kinase (LANCE TR-FRET)
Description: The assay of small molecular compounds for inhibiting the activity of TRKA kinase is based on the LANCE TR-FRET technology of Perkin Elmer Inc., and the assay method is as follows: • 1. […] 2.5 μL of the gradient-diluted compounds were taken with a transfer pipette to a 384-well plate. • 3. Addition of enzyme: 5 μL of 2×TRKA kinase solution (with a concentration of 2 nM) was taken with a transfer pipette to the corresponding reaction well of the 384-well plate, mixed well and pre-reacted at room temperature for 5 minutes. • 4. 2.5 μL 4× Ultra ULight-labeled TK Peptide (with a concentration of 400 nM)/ATP (with a concentration of 40 μM) mixture was taken with a transfer pipette to the corresponding reaction well of the 384-well plate. • 5. Negative control: 2.5 μL/well 4× substrate/ATP mixture and 7.5 μL 1× Kinase Assay Buffer were added to the wells of the 384-well plate.
(§1) Positive control: 2.5 μL/well 4× substrate/ATP mixture, 2.5 μL/well 1× Kinase Assay Buffer containing 4% DMSO, and 5 μL/well 2×TRKA kinase solution were added to the 384-well plate. The final concentration of DMSO in the reaction system was 1%. • 6. The mixture was mixed well and then centrifuged and reacted at room temperature in dark for 60 min. • 7. Termination of the enzymatic reaction: 5 μL of 4× stop solution was taken with a transfer pipette to the wells of the 384-well plate, mixed and then centrifuged, and reacted at room temperature for 5 min. • 8. Development of the reaction: 5 μL of 4× detection solution was taken with a transfer pipette to the wells of the 384-well plate for color development, and the mixture was mixed and then centrifuged and reacted at room temperature for 60 min. • 9. The 384-well plate was placed into the Envision plate reader and the signal was detected using the appropriate program.

c-MET kinase = c-MET kinase (Homo sapiens (Human), UniProt P08581); assay: Assay of small molecular compounds for inhibiting the activity of c-MET kinase (LANCE TR-FRET); details: read-out: CMET IC50
Description: (§2) The assay is based on the LANCE TR-FRET technology of Perkin Elmer Inc., and the assay method is as follows: • 1. Dilution of compounds: a total of 11 concentrations were obtained using a 3-fold gradient dilution from the highest concentration of 2500 nM (the maximum final concentration of the drug used in this assay was 2500 nM, and the minimum final concentration was 0.042 nM). • 2. 2.5 μL of the gradient-diluted compounds were taken with a transfer pipette to a 384-well plate. • 3. Addition of enzyme: 5 μL of 2×c-MET kinase solution (with a concentration of 2 nM) was taken with a transfer pipette to the corresponding reaction well of the 384-well plate, mixed well and pre-reacted at room temperature for 5 minutes. • 4. 2.5 μL 4× Ultra ULight™-JAK-1 (Tyr1023) Peptide (with a concentration of 400 nM)/ATP (with a concentration of 40 μM) mixture was taken with a transfer pipette to the corresponding reaction well of the 384-well plate. • 5. Negative control: 2.5 μL/well 4× substrate/ATP mixture and 7.5 μL 1× Kinase Assay Buffer were added to the wells of the 384-well plate. • 6. Positive control: 2.5 μL/well 4× substrate/ATP mixture, 2.5 μL/well 1× Kinase Assay Buffer containing 16% DMSO, and 5 μL/well 2× c-MET kinase solution were added to the 384-well plate. The final concentration of DMSO in the reaction system was 4%. • 7. The mixture was mixed well and then centrifuged and reacted at room temperature in dark for 60 min. • 8. Termination of the enzymatic reaction: 5 μL of 4× stop solution was taken with a transfer pipette to the wells of the 384-well plate, mixed and then centrifuged, and reacted at room temperature for 5 min. • 9. Development of the reaction: 5 μL of 4× detection solution was taken with a transfer pipette to the wells of the 384-well plate for color development, and the mixture was mixed and then centrifuged and reacted at room temperature for 60 min. • 10. The 384-well plate was placed into the Envision plate reader and the signal was detected using the appropriate program. • 11. Analysis and processing of the raw data: • 12. The drug concentrations and the corresponding inhibition rates were input into GraphPad Prism5 for calculation, and the inhibition rate of the compounds were calculated as follows: inhibition rate (%)=(reading of positive well−reading of experimental well)/(reading of positive control well−reading of negative control well)×100%. Processing with GraphPad Prism5 software yielded the corresponding IC50 values (the concentration of the compound at which 50% of the highest inhibition of the enzyme is achieved).

VEGFR-2 kinase = VEGFR-2 kinase (Homo sapiens (Human), UniProt P35968); assay: Assay of small molecular compounds for inhibiting the activity of VEGFR-2 kinase (LANCE TR-FRET); details: read-out: VEGFR2 IC50
Description: as §2, with “μL of 2×VEGFR2 kinase solution” for “μL of 2×c-MET kinase solution”, “concentration of 0.5 nM) was” for “concentration of 2 nM) was”, “temperature for 30 minutes. •” for “temperature for 5 minutes. •”, “concentration of 200 nM)/ATP (with” for “concentration of 400 nM)/ATP (with”, “5 μL/well 2×VEGFR-2 kinase solution” for “5 μL/well 2× c-MET kinase solution”, “raw data: The drug” for “raw data: • 12. The drug”

MER kinase = MER kinase (Homo sapiens (Human), UniProt Q12866); assay: Assay of small molecular compounds for inhibiting the activity of MER kinase (LANCE TR-FRET)
Description: The assay of small molecular compounds for inhibiting the activity of MER kinase is based on the LANCE TR-FRET technology of Perkin Elmer Inc., and the assay method is as follows: • 1. Dilution of compounds: a total of 11 concentrations were obtained using a 3-fold gradient dilution from the highest concentration of 2500 nM (the maximum final concentration of the drug used in this assay was 2500 nM, and the minimum final concentration was 0.042 nM). • 2. 2.5 μL of the gradient-diluted compounds were taken with a transfer pipette to a 384-well plate. • 3. Addition of enzyme: 5 μL of 2×MER kinase solution (with a concentration of 1 nM) was taken with a transfer pipette to the corresponding reaction well of the 384-well plate, mixed well and pre-reacted at room temperature for 5 minutes. • 4. 2.5 μL 4× ULight-labeled Ploy GT (with a concentration of 200 nM)/ATP (with a concentration of 20 μM) mixture was taken with a transfer pipette to the corresponding reaction well of the 384-well plate. • 5. Negative control: 2.5 μL/well 4× substrate/ATP mixture and 7.5 μL 1× Kinase Assay Buffer were added to the wells of the 384-well plate.
as §1, with “2×MER” for “2×TRKA”, “program. • 10. Analysis and processing of the raw data:” for “program.”
The drug concentrations and the corresponding inhibition rates were input into GraphPad Prism5 for calculation, and the inhibition rate of the compounds were calculated as follows: inhibition rate (%)=(reading of positive well−reading of experimental well)/(reading of positive control well−reading of negative control well)×100%. Processing with GraphPad Prism5 software yielded the corresponding IC50 values (the concentration of the compound at which 50% of the highest inhibition of the enzyme is achieved).

Chain of c-MET kinase (P08581 25-1390): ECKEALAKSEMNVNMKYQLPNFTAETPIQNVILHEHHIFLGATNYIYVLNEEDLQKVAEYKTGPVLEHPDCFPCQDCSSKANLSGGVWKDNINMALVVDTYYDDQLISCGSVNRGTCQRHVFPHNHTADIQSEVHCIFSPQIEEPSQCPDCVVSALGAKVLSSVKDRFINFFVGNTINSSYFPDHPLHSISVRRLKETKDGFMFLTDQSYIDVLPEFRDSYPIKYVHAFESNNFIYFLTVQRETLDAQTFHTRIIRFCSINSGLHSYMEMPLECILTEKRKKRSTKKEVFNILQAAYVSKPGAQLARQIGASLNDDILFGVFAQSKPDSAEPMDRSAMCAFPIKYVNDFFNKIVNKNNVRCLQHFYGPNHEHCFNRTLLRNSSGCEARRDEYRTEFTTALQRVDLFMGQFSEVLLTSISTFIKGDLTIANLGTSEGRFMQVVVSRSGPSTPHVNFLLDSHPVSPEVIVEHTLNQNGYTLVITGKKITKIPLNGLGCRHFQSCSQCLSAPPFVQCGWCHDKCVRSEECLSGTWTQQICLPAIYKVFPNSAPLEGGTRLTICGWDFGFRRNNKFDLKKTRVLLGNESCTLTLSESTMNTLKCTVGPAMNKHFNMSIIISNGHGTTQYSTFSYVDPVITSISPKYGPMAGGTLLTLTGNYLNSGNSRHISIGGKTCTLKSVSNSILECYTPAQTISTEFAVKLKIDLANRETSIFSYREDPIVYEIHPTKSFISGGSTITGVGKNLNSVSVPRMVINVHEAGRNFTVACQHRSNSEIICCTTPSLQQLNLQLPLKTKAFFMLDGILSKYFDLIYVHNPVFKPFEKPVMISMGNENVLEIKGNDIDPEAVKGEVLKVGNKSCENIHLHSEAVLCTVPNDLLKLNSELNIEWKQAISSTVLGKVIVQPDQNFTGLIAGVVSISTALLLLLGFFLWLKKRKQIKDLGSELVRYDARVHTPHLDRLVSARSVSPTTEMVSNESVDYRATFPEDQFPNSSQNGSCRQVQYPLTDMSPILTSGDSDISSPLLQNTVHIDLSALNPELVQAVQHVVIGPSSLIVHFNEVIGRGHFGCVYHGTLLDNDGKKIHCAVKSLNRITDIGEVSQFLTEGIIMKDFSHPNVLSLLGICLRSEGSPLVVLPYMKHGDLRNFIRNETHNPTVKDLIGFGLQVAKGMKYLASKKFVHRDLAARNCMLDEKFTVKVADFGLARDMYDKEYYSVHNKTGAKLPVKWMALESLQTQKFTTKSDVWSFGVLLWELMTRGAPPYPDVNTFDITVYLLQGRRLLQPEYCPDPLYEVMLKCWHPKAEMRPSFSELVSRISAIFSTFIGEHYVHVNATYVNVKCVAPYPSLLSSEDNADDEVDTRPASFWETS
Chain of MER kinase (Q12866 21-999): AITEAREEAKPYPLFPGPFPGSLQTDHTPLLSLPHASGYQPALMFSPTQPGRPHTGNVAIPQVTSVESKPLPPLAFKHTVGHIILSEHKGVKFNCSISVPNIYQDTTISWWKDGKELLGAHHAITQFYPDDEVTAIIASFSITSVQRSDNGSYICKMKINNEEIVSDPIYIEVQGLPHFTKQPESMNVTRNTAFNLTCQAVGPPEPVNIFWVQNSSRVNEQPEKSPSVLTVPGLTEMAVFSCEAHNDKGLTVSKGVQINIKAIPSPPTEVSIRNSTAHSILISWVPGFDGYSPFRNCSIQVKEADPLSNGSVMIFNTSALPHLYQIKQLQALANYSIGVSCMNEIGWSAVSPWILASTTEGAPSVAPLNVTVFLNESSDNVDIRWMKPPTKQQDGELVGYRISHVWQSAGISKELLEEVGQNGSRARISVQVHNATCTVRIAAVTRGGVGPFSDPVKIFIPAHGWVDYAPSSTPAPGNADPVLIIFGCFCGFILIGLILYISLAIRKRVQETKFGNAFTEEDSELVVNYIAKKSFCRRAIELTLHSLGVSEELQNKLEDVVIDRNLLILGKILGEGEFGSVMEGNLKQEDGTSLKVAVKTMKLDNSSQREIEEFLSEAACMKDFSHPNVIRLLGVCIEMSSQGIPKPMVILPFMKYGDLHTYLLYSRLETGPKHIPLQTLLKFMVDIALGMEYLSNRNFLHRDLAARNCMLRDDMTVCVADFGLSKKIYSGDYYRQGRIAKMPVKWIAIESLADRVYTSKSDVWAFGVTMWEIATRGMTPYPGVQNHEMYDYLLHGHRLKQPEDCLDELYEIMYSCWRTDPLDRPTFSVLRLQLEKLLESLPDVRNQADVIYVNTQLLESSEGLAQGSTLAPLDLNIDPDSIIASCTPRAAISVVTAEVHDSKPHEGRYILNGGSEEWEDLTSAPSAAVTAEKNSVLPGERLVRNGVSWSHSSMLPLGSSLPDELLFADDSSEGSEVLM
Chain of TRKA kinase (P04629 33-796): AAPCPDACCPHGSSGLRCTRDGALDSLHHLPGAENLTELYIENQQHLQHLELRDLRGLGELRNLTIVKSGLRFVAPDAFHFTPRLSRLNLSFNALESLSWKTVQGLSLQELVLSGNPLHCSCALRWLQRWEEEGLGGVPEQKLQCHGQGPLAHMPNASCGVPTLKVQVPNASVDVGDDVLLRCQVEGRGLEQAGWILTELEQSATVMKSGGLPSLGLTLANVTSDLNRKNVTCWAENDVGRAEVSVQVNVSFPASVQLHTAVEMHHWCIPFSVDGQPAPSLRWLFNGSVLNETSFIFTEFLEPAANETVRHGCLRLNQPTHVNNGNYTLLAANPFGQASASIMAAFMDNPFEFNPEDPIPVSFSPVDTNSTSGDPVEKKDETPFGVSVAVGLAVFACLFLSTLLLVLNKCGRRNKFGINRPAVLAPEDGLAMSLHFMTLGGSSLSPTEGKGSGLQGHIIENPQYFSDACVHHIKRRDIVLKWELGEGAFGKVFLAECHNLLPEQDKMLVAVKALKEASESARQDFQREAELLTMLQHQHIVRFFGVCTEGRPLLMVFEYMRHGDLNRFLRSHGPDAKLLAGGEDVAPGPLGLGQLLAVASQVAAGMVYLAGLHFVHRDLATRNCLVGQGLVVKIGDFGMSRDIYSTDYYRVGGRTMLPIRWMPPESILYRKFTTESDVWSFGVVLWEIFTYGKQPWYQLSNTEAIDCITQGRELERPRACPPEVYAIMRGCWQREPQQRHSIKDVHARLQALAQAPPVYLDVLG
Chain of VEGFR-2 kinase (P35968 20-1356): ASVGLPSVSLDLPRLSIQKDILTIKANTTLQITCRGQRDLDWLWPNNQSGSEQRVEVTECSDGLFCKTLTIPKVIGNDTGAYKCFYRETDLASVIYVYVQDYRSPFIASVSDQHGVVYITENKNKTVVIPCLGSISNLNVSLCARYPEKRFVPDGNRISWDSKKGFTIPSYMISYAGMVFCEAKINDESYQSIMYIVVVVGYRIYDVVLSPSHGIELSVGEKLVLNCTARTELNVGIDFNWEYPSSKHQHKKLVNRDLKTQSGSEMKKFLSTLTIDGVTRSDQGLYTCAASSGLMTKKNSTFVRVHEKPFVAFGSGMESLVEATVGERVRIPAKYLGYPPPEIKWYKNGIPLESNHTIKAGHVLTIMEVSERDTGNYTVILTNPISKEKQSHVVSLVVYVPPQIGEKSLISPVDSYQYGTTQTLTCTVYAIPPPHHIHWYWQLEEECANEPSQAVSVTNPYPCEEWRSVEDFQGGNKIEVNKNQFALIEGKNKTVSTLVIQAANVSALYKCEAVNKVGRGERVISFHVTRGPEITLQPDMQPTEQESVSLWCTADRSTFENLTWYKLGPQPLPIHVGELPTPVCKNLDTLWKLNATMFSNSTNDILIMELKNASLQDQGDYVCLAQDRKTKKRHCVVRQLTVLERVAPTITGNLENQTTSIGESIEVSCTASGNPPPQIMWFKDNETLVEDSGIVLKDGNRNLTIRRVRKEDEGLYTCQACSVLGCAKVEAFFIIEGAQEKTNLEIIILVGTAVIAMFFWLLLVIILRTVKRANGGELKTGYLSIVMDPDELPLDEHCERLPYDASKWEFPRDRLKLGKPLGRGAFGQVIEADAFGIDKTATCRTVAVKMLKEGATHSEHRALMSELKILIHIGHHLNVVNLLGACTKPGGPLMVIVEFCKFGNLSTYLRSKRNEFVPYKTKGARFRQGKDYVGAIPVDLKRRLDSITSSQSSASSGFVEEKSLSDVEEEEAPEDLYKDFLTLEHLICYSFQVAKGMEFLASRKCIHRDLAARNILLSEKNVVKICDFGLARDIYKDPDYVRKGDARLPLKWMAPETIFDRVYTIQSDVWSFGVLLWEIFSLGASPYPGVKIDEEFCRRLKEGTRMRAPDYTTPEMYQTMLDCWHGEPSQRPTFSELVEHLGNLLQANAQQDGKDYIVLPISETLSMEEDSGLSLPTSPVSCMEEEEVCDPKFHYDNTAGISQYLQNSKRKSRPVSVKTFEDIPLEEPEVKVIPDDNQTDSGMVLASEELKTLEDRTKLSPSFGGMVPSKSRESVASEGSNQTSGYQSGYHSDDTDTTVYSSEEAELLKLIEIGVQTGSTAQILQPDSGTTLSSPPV

| pIC50 (TRKA kinase) | pIC50 (c-MET kinase) | pIC50 (VEGFR-2 kinase) | pIC50 (MER kinase) | Compound |
| --- | --- | --- | --- | --- |
| 5.30 to 6.30 | ≥ 7.30 | 5.30 to 6.30 |  | Cn1cc(C(=O)Nc2ccc(Oc3ccnc4cc(OC5CC5)c5c(c34)OCCO5)cc2)c(=O)n(-c2ccc(F)cc2)c1=O [Example 151, N-(4-((5-cyclopropyloxy-2,3-dihydro-[1,4]dioxino[2,3-f]quinolin-10-yl)oxy)phenyl)-3-(4-fluorophenyl)-1-methyl-2,4-dioxo-1,2,3,4-tetrahydropyrimidine-5-carboxamide] |
| < 5.30 | ≥ 7.30 | < 5.30 |  | CCn1cc(C(=O)Nc2ccc(Oc3ccnc4cc(OC5CC5)c5c(c34)OCCO5)cc2)c(=O)n(-c2ccc(F)cc2)c1=O [Example 152, N-(4-((5-cyclopropyloxy-2,3-dihydro-[1,4]dioxino[2,3-f]quinolin-10-yl)oxy)phenyl)-3-(4-fluorophenyl)-1-ethyl-2,4-dioxo-1,2,3,4-tetrahydropyrimidine-5-carboxamide] |
|  |  | 5.30 to 6.30 | 6.30 to 7.30 | COc1cc2nccc(Oc3ccc(NC(=O)c4cn(CC(=O)OC(C)(C)C)c(=O)n(-c5ccc(F)cc5)c4=O)cc3F)c2c2c1OCCO2 [Example 103, tert-butyl 2-(5-((3-fluoro-4-((5-methoxy-2,3-dihydro-[1,4]dioxino[2,3-f]quinolin-10-yl)oxy)phenyl)carbamoyl)-3-(4-fluorophenyl)-2,4-dioxo-3,4-dihydropyrimidin-1(2H)-yl)acetate] |
| 6.30 to 7.30 | 6.30 to 7.30 |  | 5.30 to 6.30 | COc1cc2nccc(Oc3ccc(NC(=O)c4ccn(-c5ccc(F)cc5C)n4)cc3F)c2c2c1OCCO2 [Example 23, 1-(4-fluoro-2-methylphenyl)-N-(3-fluoro-4-((5-methoxy-2,3-dihydro-[1,4]dioxino[2,3-f]quinolin-10-yl)oxy)phenyl)-1H-pyrazole-3-carboxamide] |
| 5.30 to 6.30 | 6.30 to 7.30 |  | 6.30 to 7.30 | COc1cc2nccc(Oc3ccc(NC(=O)c4cn(C(C)C)c(=O)n(-c5ccc(Cl)cc5)c4=O)cc3F)c2c2c1OCCO2 [Example 108, N-(3-fluoro-4-((5-methoxy-2,3-dihydro-[1,4]dioxino[2,3-f]quinolin-10-yl)oxy)phenyl)-3-(4-chlorophenyl)-1-isopropyl-2,4-dioxo-1,2,3,4-tetrahydropyrimidine-5-carboxamide] |
| 6.30 to 7.30 | 6.30 to 7.30 |  | 6.30 to 7.30 | Cn1cc(C(=O)Nc2ccc(Oc3ccnc4cc(OCC5CC5)c5c(c34)OCCO5)c(F)c2)c(=O)n(-c2ccc(F)cc2)c1=O [Example 84, N-(3-fluoro-4-((5-(cyclopropylmethoxy)-2,3-dihydro-[1,4]dioxino[2,3-f]quinolin-10-yl)oxy)phenyl)-3-(4-fluorophenyl)-1-methyl-2,4-dioxo-1,2,3,4-tetrahydropyrimidine-5-carboxamide] |
| 5.30 to 6.30 | 6.30 to 7.30 |  | ≥ 7.30 | COc1cc2nccc(Oc3ccc(NC(=O)c4cn(C(C)C)c(=O)n(-c5ccc(C)cc5)c4=O)cc3F)c2c2c1OCCO2 [Example 107, N-(3-fluoro-4-((5-methoxy-2,3-dihydro-[1,4]dioxino[2,3-f]quinolin-10-yl)oxy)phenyl)-3-(4-methylphenyl)-1-isopropyl-2,4-dioxo-1,2,3,4-tetrahydropyrimidine-5-carboxamide] |
| 6.30 to 7.30 | 6.30 to 7.30 |  | ≥ 7.30 | CC(C)n1cc(C(=O)Nc2ccc(Oc3ccnc4cc(OC5COC5)c5c(c34)OCCO5)c(F)c2)c(=O)n(-c2ccc(F)cc2)c1=O [Example 89, N-(3-fluoro-4-((5-((oxetan-3-yl)oxy)-2,3-dihydro-[1,4]dioxino[2,3-f]quinolin-10-yl)oxy)phenyl)-3-(4-fluorophenyl)-1-isopropyl-2,4-dioxo-1,2,3,4-tetrahydropyrimidine-5-carboxamide] |
